Experimental data: US11472808B2, “Substituted pyrrolo[1,2-c]pyrimidines as hepatitis B antiviral agents” (Enanta Pharmaceuticals, Inc., priority 2019, dated 2022)

What was measured:
[1] = Compound toxicity, ATPLite total ATP levels; assay type: cell-based; settings: human, HepG2 cells; concentration reducing total ATP levels by 50% relative to no drug controls; ATPLite three days after compound addition
Description: Compound toxicity is evaluated by seeding cells at 15,000 cells/well and treating with compound as described above.

HBV = assay: HepAD38 anti-HBV assay: reduction of viral product accumulation (virion DNA qPCR, HBsAg/HBeAg ELISA); assay type: cell-based; settings: Hepatitis B virus, 120 h; HepAD38 cells; concentration reducing viral product accumulation by 50% relative to no drug controls; harvest five days after compound addition; read-out: HepAD38 EC50
In short: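 EC50 values reflect 50% reduction, relative to untreated controls, in virion DNA (qPCR) or HBsAg/HBeAg (ELISA) from lysates or supernatants. Washed HepAD38 cells without tetracycline were exposed to compound for 5 days. In the 8-day variant, medium and compound were renewed on days 2 and 5.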

Structure (SMILES)	CC50 at 3 days [1]	EC50 (HBV)
CS(=O)(=O)c1cccc(S(=O)(=O)N[C@H]2CC3=C(c4ccn(C(F)F)n4)[C@H](c4ccc(F)cc4Cl)N=C(c4nccs4)N3C2)c1 [Example 336]	> 25 µM	< 0.1 µM
CS(=O)(=O)C1CN(S(=O)(=O)N[C@H]2CC3=C(c4ccn(C(F)F)n4)[C@H](c4ccc(F)cc4Cl)N=C(c4nccs4)N3C2)C1 [Example 337]	> 25 µM	< 0.1 µM
O=S(=O)(N[C@H]1CC2=C(c3ccn(C(F)F)n3)[C@H](c3ccc(F)cc3Cl)N=C(c3nccs3)N2C1)c1cccc(C(O)c2ccccn2)c1 (stereo partly drawn) [Example 339]	> 25 µM	< 0.1 µM
O=S(=O)(N[C@H]1CC2=C(c3ccn(C(F)F)n3)[C@H](c3ccc(F)cc3Cl)N=C(c3nccs3)N2C1)c1ccc(S(=O)(=O)C(F)F)cc1 [Example 340]	> 25 µM	< 0.1 µM
CC(C)[C@H](NS(=O)(=O)N[C@H]1CC2=C(c3ccn(C(F)F)n3)[C@H](c3ccc(F)cc3Cl)N=C(c3nccs3)N2C1)c1ccccn1 [Example 342]	> 25 µM	< 0.1 µM
O=S(=O)(N[C@H]1CC2=C(c3ccn(C(F)F)n3)[C@H](c3ccc(F)cc3Cl)N=C(c3nccs3)N2C1)N[C@H](c1ccccn1)C1CC1 [Example 353]	> 25 µM	< 0.1 µM
CS(=O)(=O)Nc1ccc(S(=O)(=O)N[C@H]2CC3=C(c4ccn(C(F)F)n4)[C@H](c4ccc(F)cc4Cl)N=C(c4nccs4)N3C2)cc1 [Example 357]	> 25 µM	< 0.1 µM
O=C1NC2(CO1)CN(S(=O)(=O)N[C@H]1CC3=C(c4ccn(C(F)F)n4)[C@H](c4ccc(F)cc4Cl)N=C(c4nccs4)N3C1)C2 [Example 358]	> 25 µM	< 0.1 µM
CC(C)C[C@H](NS(=O)(=O)N[C@H]1CC2=C(c3ccn(C(F)F)n3)[C@H](c3ccc(F)cc3Cl)N=C(c3nccs3)N2C1)c1ccccn1 [Example 359]	> 25 µM	< 0.1 µM
O=S(=O)(NC(c1ccccn1)c1ccccn1)N[C@H]1CC2=C(c3ccn(C(F)F)n3)[C@H](c3ccc(F)cc3Cl)N=C(c3nccs3)N2C1 [Example 361]	> 25 µM	< 0.1 µM
O=S(=O)(N[C@H]1CC2=C(c3ccn(C(F)F)n3)[C@H](c3ccc(F)cc3Cl)N=C(c3nccs3)N2C1)c1ncc[nH]1 [Example 362]	> 25 µM	< 0.1 µM
C[C@]1(NS(=O)(=O)C2CCC(O)(c3ccccn3)CC2)CC2=C(c3ccn(C(F)F)n3)[C@H](c3ccc(F)cc3Cl)N=C(c3nccs3)N2C1 (stereo partly drawn) [Example 363]	10 to 25 µM	< 0.1 µM
O=S(=O)(N[C@H]1CC2=C(c3ccn(C(F)F)n3)[C@H](c3ccc(F)cc3Cl)N=C(c3nccs3)N2C1)c1ccccn1 [Example 364]	> 25 µM	< 0.1 µM
O=S(=O)(N[C@H]1CC2=C(c3ccn(C(F)F)n3)[C@H](c3ccc(F)cc3Cl)N=C(c3nccs3)N2C1)c1cccnc1 [Example 365]	> 25 µM	< 0.1 µM
O=S(=O)(N[C@H]1CC2=C(c3ccn(C(F)F)n3)[C@H](c3ccc(F)cc3Cl)N=C(c3nccs3)N2C1)c1ccccc1 [Example 367]	> 25 µM	< 0.1 µM
O=S(=O)(N[C@H]1CC2=C(c3ccn(C(F)F)n3)[C@H](c3ccc(F)cc3Cl)N=C(c3nccs3)N2C1)c1ccc(Br)cn1 [Example 368]	> 25 µM	< 0.1 µM
CCOC(=O)CC1(S(=O)(=O)N[C@H]2CC3=C(c4ccn(C(F)F)n4)[C@H](c4ccc(F)cc4Cl)N=C(c4nccs4)N3C2)CC1 [Example 369]	> 25 µM	< 0.1 µM
O=S(=O)(N[C@H]1CC2=C(c3ccn(C(F)F)n3)[C@H](c3ccc(F)cc3Cl)N=C(c3nccs3)N2C1)[C@H]1C[C@H](O)C1 [Example 370]	> 25 µM	< 0.1 µM
O=S(=O)(N[C@H]1CC2=C(c3ccn(C(F)F)n3)[C@H](c3ccc(F)cc3Cl)N=C(c3nccs3)N2C1)[C@H]1C[C@](O)(c2ccccn2)C1 [Example 371]	10 to 25 µM	< 0.1 µM
O=S1(=O)NCCN1[C@H]1CC2=C(c3ccn(C(F)F)n3)[C@H](c3ccc(F)cc3Cl)N=C(c3nccs3)N2C1 [Example 376]	> 25 µM	< 0.1 µM

Structure (SMILES)	CC50 at 3 days [1]	EC50 (HBV)
O=S(=O)(N[C@H]1CC2=C(c3ccn(C(F)F)n3)[C@H](c3ccc(F)cc3Cl)N=C(c3nccs3)N2C1)C1(c2ccccn2)CC1 [Example 377]	> 25 µM	< 0.1 µM
O=S(=O)(N[C@H]1CC2=C(c3ccn(C(F)F)n3)[C@H](c3ccc(F)cc3Cl)N=C(c3nccs3)N2C1)c1cccc(-c2cccnc2)n1 [Example 378]	> 25 µM	< 0.1 µM
O=S(=O)(N[C@H]1CC2=C(c3ccn(C(F)F)n3)[C@H](c3ccc(F)cc3Cl)N=C(c3nccs3)N2C1)C1(CCO)CC1 [Example 379]	10 to 25 µM	< 0.1 µM
O=S(=O)(N[C@H]1CC2=C(c3ccn(C(F)F)n3)[C@H](c3ccc(F)cc3Cl)N=C(c3nccs3)N2C1)c1ccc([C@H]2CC[C@H](O)CC2)cc1 [Example 381]	10 to 25 µM	< 0.1 µM
Nc1cccc(S(=O)(=O)N[C@H]2CC3=C(c4ccn(C(F)F)n4)[C@H](c4ccc(F)cc4Cl)N=C(c4nccs4)N3C2)n1 [Example 383]	> 25 µM	< 0.1 µM
O=S(=O)(N[C@H]1CC2=C(c3ccn(C(F)F)n3)[C@H](c3ccc(F)cc3Cl)N=C(c3nccs3)N2C1)c1ccc([C@H]2CC[C@](O)(c3ccccn3)CC2)cc1 [Example 385]	> 25 µM	< 0.1 µM
O=S(=O)(N[C@H]1CC2=C(c3ccn(C(F)F)n3)[C@H](c3ccc(F)cc3Cl)N=C(c3nccs3)N2C1)c1cccc(F)c1 [Example 386]	10 to 25 µM	< 0.1 µM
O=S(=O)(N[C@H]1CC2=C(c3ccn(C(F)F)n3)[C@H](c3ccc(F)cc3Cl)N=C(c3nccs3)N2C1)c1ccccc1F [Example 387]	> 25 µM	< 0.1 µM
O=S(=O)(N[C@H]1CC2=C(c3ccn(C(F)F)n3)[C@H](c3ccc(F)cc3Cl)N=C(c3nccs3)N2C1)c1ccc(F)cc1F [Example 388]	> 25 µM	< 0.1 µM
O=S(=O)(N[C@H]1CC2=C(c3ccn(C(F)F)n3)[C@H](c3ccc(F)cc3Cl)N=C(c3nccs3)N2C1)c1ccc(Br)cc1 [Example 389]	> 25 µM	< 0.1 µM
Cn1ccc(S(=O)(=O)N[C@H]2CC3=C(c4ccn(C(F)F)n4)[C@H](c4ccc(F)cc4Cl)N=C(c4nccs4)N3C2)n1 [Example 394]	> 25 µM	< 0.1 µM
Cc1ccc(S(=O)(=O)N[C@H]2CC3=C(c4ccn(C(F)F)n4)[C@H](c4ccc(F)cc4Cl)N=C(c4nccs4)N3C2)cn1 [Example 401]	> 25 µM	< 0.1 µM
O=S(=O)(N[C@H]1CC2=C(c3ccn(C(F)F)n3)[C@H](c3ccc(F)cc3Cl)N=C(c3nccs3)N2C1)c1ccc(-c2cccnc2)cn1 [Example 403]	> 25 µM	< 0.1 µM
C[C@]1(O)CC[C@@H](c2ccc(S(=O)(=O)N[C@H]3CC4=C(c5ccn(C(F)F)n5)[C@H](c5ccc(F)cc5Cl)N=C(c5nccs5)N4C3)cc2)CC1 [Example 410]	> 25 µM	< 0.1 µM
C[C@]1(O)CC[C@H](c2ccc(S(=O)(=O)N[C@H]3CC4=C(c5ccn(C(F)F)n5)[C@H](c5ccc(F)cc5Cl)N=C(c5nccs5)N4C3)cc2)CC1 [Example 411]	10 to 25 µM	< 0.1 µM
O=C1NC[C@@H](CNC(=O)c2cccc(S(=O)(=O)N[C@H]3CC4=C(c5ccn(C(F)F)n5)[C@H](c5ccc(F)cc5Cl)N=C(c5nccs5)N4C3)c2)O1 [Example 420]	> 25 µM	< 0.1 µM
O=C1NC[C@H](CNC(=O)c2cccc(S(=O)(=O)N[C@H]3CC4=C(c5ccn(C(F)F)n5)[C@H](c5ccc(F)cc5Cl)N=C(c5nccs5)N4C3)c2)O1 [Example 421]	> 25 µM	< 0.1 µM
O=S(=O)(N[C@H]1CC2=C(c3ccn(C(F)F)n3)[C@H](c3ccc(F)cc3Cl)N=C(c3nccs3)N2C1)C1(C[C@@H](O)CO)CC1 [Example 424]	> 25 µM	< 0.1 µM
O=C(O)[C@H]1CC[C@H](c2ccc(S(=O)(=O)N[C@H]3CC4=C(c5ccn(C(F)F)n5)[C@H](c5ccc(F)cc5Cl)N=C(c5nccs5)N4C3)cc2)CC1 [Example 426]	> 25 µM	< 0.1 µM
